#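 Tested at 5 concentrations; 48 h exposure; 96-well plates; endpoints linearly interpolated, else capped at highest concentration. GI50 is the concentration that inhibits growth by half. TGI is the concentration that stops growth completely.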
# What was measured:
# Assay in all cases: NCI-60 cell line screen, 48 h
# 786-0 renal = system: 786-0 renal
# A498 renal = system: A498 renal
# A549 NSCLC = system: A549 NSCLC
# ACHN renal = system: ACHN renal
# BT-549 breast = system: BT-549 breast
# CAKI-1 renal = system: CAKI-1 renal
# CCRF-CEM leukemia = system: CCRF-CEM leukemia
# COLO 205 colon = system: COLO 205 colon
# DU-145 prostate = system: DU-145 prostate
# EKVX NSCLC = system: EKVX NSCLC
# HCC-2998 colon = system: HCC-2998 colon
# HCT-116 colon = system: HCT-116 colon
# HCT-15 colon = system: HCT-15 colon
# HL-60(TB) leukemia = system: HL-60(TB) leukemia
# HOP-62 NSCLC = system: HOP-62 NSCLC
# HOP-92 NSCLC = system: HOP-92 NSCLC
# HS 578T breast = system: HS 578T breast
# HT29 colon = system: HT29 colon
# IGROV1 ovarian = system: IGROV1 ovarian
# K-562 leukemia = system: K-562 leukemia
# KM12 colon = system: KM12 colon
# LOX IMVI melanoma = system: LOX IMVI melanoma
# M14 melanoma = system: M14 melanoma
# MALME-3M melanoma = system: MALME-3M melanoma
# MCF7 breast = system: MCF7 breast
# MDA-MB-231 breast = system: MDA-MB-231 breast
# MDA-MB-435 = system: MDA-MB-435
# MDA-N = system: MDA-N
# MOLT-4 leukemia = system: MOLT-4 leukemia
# NCI-H226 lung = system: NCI-H226 lung
# NCI-H23 lung = system: NCI-H23 lung
# NCI-H460 lung = system: NCI-H460 lung
# NCI-H522 lung = system: NCI-H522 lung
# NCI/ADR-RES ovarian = system: NCI/ADR-RES ovarian
# OVCAR-3 ovarian = system: OVCAR-3 ovarian
# OVCAR-4 ovarian = system: OVCAR-4 ovarian
# OVCAR-5 ovarian = system: OVCAR-5 ovarian
# OVCAR-8 ovarian = system: OVCAR-8 ovarian
# PC-3 prostate = system: PC-3 prostate
# RPMI-8226 leukemia = system: RPMI-8226 leukemia
# SF-268 CNS = system: SF-268 CNS
# SF-295 CNS = system: SF-295 CNS
# SF-539 CNS = system: SF-539 CNS
# SK-MEL-2 melanoma = system: SK-MEL-2 melanoma
# SK-MEL-28 melanoma = system: SK-MEL-28 melanoma
# SK-MEL-5 melanoma = system: SK-MEL-5 melanoma
# SK-OV-3 ovarian = system: SK-OV-3 ovarian
# SN12C renal = system: SN12C renal
# SNB-19 CNS = system: SNB-19 CNS
# SNB-75 CNS = system: SNB-75 CNS
# SR leukemia = system: SR leukemia
# SW-620 colon = system: SW-620 colon
# T-47D breast = system: T-47D breast
# TK-10 renal = system: TK-10 renal
# U251 CNS = system: U251 CNS
# UACC-257 melanoma = system: UACC-257 melanoma
# UACC-62 melanoma = system: UACC-62 melanoma
# UO-31 renal = system: UO-31 renal
# RXF 393 renal = system: RXF 393 renal
compound,measurement,setting,value
Cc1ccc2c(=O)cc(-c3ccc(F)cc3)[nH]c2n1,GI50,786-0 renal,42.2 µM
same,TGI,786-0 renal,> 100 µM
same,TGI,A498 renal,66.6 µM
same,TGI,A549 NSCLC,> 100 µM
same,TGI,ACHN renal,> 100 µM
same,TGI,BT-549 breast,> 100 µM
same,TGI,CAKI-1 renal,> 100 µM
same,TGI,CCRF-CEM leukemia,> 100 µM
same,TGI,COLO 205 colon,47.9 µM
same,TGI,DU-145 prostate,> 100 µM
same,TGI,EKVX NSCLC,> 100 µM
same,TGI,HCC-2998 colon,> 100 µM
same,GI50,HCT-116 colon,33.9 µM
same,TGI,HCT-116 colon,> 100 µM
same,TGI,HCT-15 colon,> 100 µM
same,TGI,HL-60(TB) leukemia,34.3 µM
same,TGI,HOP-62 NSCLC,> 100 µM
same,TGI,HOP-92 NSCLC,86.5 µM
same,TGI,HS 578T breast,> 100 µM
same,TGI,HT29 colon,> 100 µM
same,TGI,IGROV1 ovarian,> 100 µM
same,TGI,K-562 leukemia,83 µM
same,TGI,KM12 colon,> 100 µM
same,TGI,LOX IMVI melanoma,> 100 µM
same,TGI,M14 melanoma,> 100 µM
same,TGI,MALME-3M melanoma,> 100 µM
same,TGI,MCF7 breast,> 100 µM
same,TGI,MDA-MB-231 breast,> 100 µM
same,GI50,MDA-MB-435,5.87 µM
same,TGI,MDA-MB-435,22.2 µM
same,TGI,MDA-N,32.1 µM
same,TGI,MOLT-4 leukemia,> 100 µM
same,TGI,NCI-H226 lung,> 100 µM
same,TGI,NCI-H23 lung,> 100 µM
same,GI50,NCI-H460 lung,33.6 µM
same,TGI,NCI-H460 lung,> 100 µM
same,TGI,NCI-H522 lung,84.7 µM
same,TGI,NCI/ADR-RES ovarian,86.9 µM
same,GI50,OVCAR-3 ovarian,32.2 µM
same,TGI,OVCAR-3 ovarian,> 100 µM
same,TGI,OVCAR-4 ovarian,> 100 µM
same,TGI,OVCAR-5 ovarian,> 100 µM
same,TGI,OVCAR-8 ovarian,> 100 µM
same,GI50,PC-3 prostate,20.9 µM
same,TGI,PC-3 prostate,88.1 µM
same,TGI,RPMI-8226 leukemia,95.1 µM
same,TGI,SF-268 CNS,> 100 µM
same,GI50,SF-295 CNS,36.8 µM
same,TGI,SF-295 CNS,> 100 µM
same,TGI,SF-539 CNS,> 100 µM
same,TGI,SK-MEL-2 melanoma,> 100 µM
same,TGI,SK-MEL-28 melanoma,> 100 µM
same,GI50,SK-MEL-5 melanoma,31.3 µM
same,TGI,SK-MEL-5 melanoma,> 100 µM
same,TGI,SK-OV-3 ovarian,> 100 µM
same,TGI,SN12C renal,> 100 µM
same,TGI,SNB-19 CNS,> 100 µM
same,TGI,SNB-75 CNS,49.6 µM
same,TGI,SR leukemia,34.4 µM
same,TGI,SW-620 colon,> 100 µM
same,TGI,T-47D breast,> 100 µM
same,TGI,TK-10 renal,> 100 µM
same,GI50,U251 CNS,37.3 µM
same,TGI,U251 CNS,> 100 µM
same,TGI,UACC-257 melanoma,> 100 µM
same,TGI,UACC-62 melanoma,> 100 µM
same,TGI,UO-31 renal,> 100 µM
CCOC(=O)Nn1c(C)nnc1-c1ccccc1,TGI,786-0 renal,> 100 µM
same,TGI,A498 renal,> 100 µM
same,TGI,A549 NSCLC,> 100 µM
same,TGI,ACHN renal,> 100 µM
same,TGI,BT-549 breast,> 100 µM
same,TGI,CAKI-1 renal,> 100 µM
same,TGI,CCRF-CEM leukemia,> 100 µM
same,TGI,COLO 205 colon,> 100 µM
same,TGI,DU-145 prostate,> 100 µM
same,TGI,EKVX NSCLC,> 100 µM
same,TGI,HCC-2998 colon,> 100 µM
same,TGI,HCT-116 colon,> 100 µM
same,TGI,HCT-15 colon,> 100 µM
same,TGI,HOP-92 NSCLC,> 100 µM
same,TGI,HS 578T breast,> 100 µM
same,TGI,HT29 colon,> 100 µM
same,TGI,IGROV1 ovarian,> 100 µM
same,TGI,K-562 leukemia,> 100 µM
same,TGI,KM12 colon,> 100 µM
same,TGI,LOX IMVI melanoma,> 100 µM
same,TGI,M14 melanoma,> 100 µM
same,TGI,MALME-3M melanoma,> 100 µM
same,TGI,MCF7 breast,> 100 µM
same,TGI,MDA-MB-231 breast,> 100 µM
same,TGI,MDA-MB-435,> 100 µM
same,TGI,MDA-N,> 100 µM
same,TGI,MOLT-4 leukemia,> 100 µM
same,TGI,NCI-H226 lung,> 100 µM
same,TGI,NCI-H23 lung,> 100 µM
same,TGI,NCI-H460 lung,> 100 µM
same,TGI,NCI-H522 lung,> 100 µM
same,TGI,NCI/ADR-RES ovarian,> 100 µM
same,TGI,OVCAR-3 ovarian,> 100 µM
same,TGI,OVCAR-4 ovarian,> 100 µM
same,TGI,OVCAR-5 ovarian,> 100 µM
same,TGI,OVCAR-8 ovarian,> 100 µM
same,TGI,PC-3 prostate,> 100 µM
same,TGI,RPMI-8226 leukemia,> 100 µM
same,TGI,RXF 393 renal,> 100 µM
same,TGI,SF-268 CNS,> 100 µM
same,TGI,SF-295 CNS,> 100 µM
same,TGI,SF-539 CNS,> 100 µM
same,TGI,SK-MEL-2 melanoma,> 100 µM
same,TGI,SK-MEL-5 melanoma,> 100 µM
same,TGI,SK-OV-3 ovarian,> 100 µM
same,TGI,SN12C renal,> 100 µM
same,TGI,SNB-19 CNS,> 100 µM
same,TGI,SR leukemia,> 100 µM
same,TGI,SW-620 colon,> 100 µM
same,TGI,T-47D breast,> 100 µM
same,TGI,TK-10 renal,> 100 µM
same,TGI,U251 CNS,> 100 µM
same,TGI,UACC-257 melanoma,> 100 µM
same,TGI,UACC-62 melanoma,> 100 µM
same,TGI,UO-31 renal,> 100 µM
COC(=O)C1CCC(=O)N1C(c1ccccc1)c1ccc(OC)c(OC)c1 (stereo not drawn),TGI,786-0 renal,> 100 µM
same,TGI,A498 renal,> 100 µM
same,TGI,A549 NSCLC,> 100 µM
same,TGI,ACHN renal,> 100 µM
same,TGI,BT-549 breast,> 100 µM
same,TGI,CAKI-1 renal,> 100 µM
same,TGI,COLO 205 colon,> 100 µM
same,TGI,DU-145 prostate,> 100 µM
same,TGI,EKVX NSCLC,> 100 µM
same,TGI,HCC-2998 colon,> 100 µM
same,TGI,HCT-116 colon,> 100 µM
same,TGI,HCT-15 colon,> 100 µM
same,TGI,HL-60(TB) leukemia,> 100 µM
same,TGI,HOP-62 NSCLC,> 100 µM
same,TGI,HOP-92 NSCLC,> 100 µM
same,TGI,HS 578T breast,> 100 µM
same,TGI,HT29 colon,> 100 µM
same,TGI,IGROV1 ovarian,> 100 µM
same,TGI,K-562 leukemia,> 100 µM
same,TGI,KM12 colon,> 100 µM
same,TGI,LOX IMVI melanoma,> 100 µM
same,TGI,M14 melanoma,> 100 µM
same,TGI,MALME-3M melanoma,> 100 µM
same,TGI,MCF7 breast,> 100 µM
same,TGI,MDA-MB-231 breast,> 100 µM
same,TGI,MDA-MB-435,> 100 µM
same,TGI,MDA-N,> 100 µM
same,TGI,NCI-H226 lung,> 100 µM
same,TGI,NCI-H23 lung,> 100 µM
same,TGI,NCI-H460 lung,> 100 µM
same,TGI,NCI-H522 lung,> 100 µM
same,TGI,NCI/ADR-RES ovarian,> 100 µM
same,TGI,OVCAR-3 ovarian,> 100 µM
same,TGI,OVCAR-4 ovarian,> 100 µM
same,TGI,OVCAR-5 ovarian,> 100 µM
same,TGI,OVCAR-8 ovarian,> 100 µM
same,TGI,PC-3 prostate,> 100 µM
same,TGI,RPMI-8226 leukemia,> 100 µM
same,TGI,SF-268 CNS,> 100 µM
same,TGI,SF-295 CNS,> 100 µM
same,TGI,SF-539 CNS,> 100 µM
same,TGI,SK-MEL-2 melanoma,> 100 µM
same,TGI,SK-MEL-28 melanoma,> 100 µM
same,TGI,SK-MEL-5 melanoma,> 100 µM
same,TGI,SK-OV-3 ovarian,> 100 µM
same,TGI,SN12C renal,> 100 µM
same,TGI,SNB-19 CNS,> 100 µM
same,TGI,SNB-75 CNS,> 100 µM
same,TGI,SR leukemia,> 100 µM
same,TGI,SW-620 colon,> 100 µM
same,TGI,T-47D breast,> 100 µM
same,TGI,TK-10 renal,> 100 µM
same,TGI,U251 CNS,> 100 µM
same,TGI,UACC-257 melanoma,> 100 µM
same,TGI,UACC-62 melanoma,> 100 µM
same,TGI,UO-31 renal,> 100 µM
